What was measured:
[1] = target: PHD2 enzyme (residues 181-417) (Homo sapiens (Human), UniProt Q9GZT9); experiment: Inhibition of PHD enzyme (LC/MS peptide hydroxylation assay); type: biochemical; settings: PHD2 (residues 181-417) 5 nM, 60 min pre-incubation; -log(IC50), IC50 molar
Method in brief: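 Hydroxylated peptide quantified by LC/MS after 60 min turnover of 1 uM biotinylated peptide with 2 uM 2-oxoglutarate and 1 mM ascorbate, stopped by excess tight-binding inhibitor. Beforehand, 5 nM enzyme and compound were preincubated 60 min at RT, pH 7.3 HEPES/KCl/TCEP/FeCl2/BSA buffer. Values as pIC50 (−log molar IC50).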

[2] = test system: HIF1a protein in H9c2 rat cardiomyocytes; experiment: Cell-based HIF-alpha stabilization assay (inhibition of PHD in cells); settings: Rattus norvegicus, H9c2, 24 h, 24 hrs compound incubation, HIF1a protein by ELISA, read-out: Inhibition of PHD in cells (pEC50) (converted)
Method in brief: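 HIF1a stabilization was measured by ELISA on lysates of H9c2 rat cardiomyocytes after 24 h exposure to 11 serial compound concentrations, expressed relative to the desferrioxamine maximum. Curve fits gave EC50. EC50pos denotes the concentration producing half the desferrioxamine maximal response.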

PHD2 enzyme (residues 181-417), sequence (Q9GZT9 181-417): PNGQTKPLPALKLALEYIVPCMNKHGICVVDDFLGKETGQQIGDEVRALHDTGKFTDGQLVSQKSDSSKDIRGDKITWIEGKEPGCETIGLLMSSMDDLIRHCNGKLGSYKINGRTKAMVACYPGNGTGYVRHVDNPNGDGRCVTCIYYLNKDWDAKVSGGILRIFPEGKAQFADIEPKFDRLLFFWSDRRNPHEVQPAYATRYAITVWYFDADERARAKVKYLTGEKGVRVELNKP

SMILES: CCN1CCN(C(=O)c2ccc(-n3ncc(-c4ccc(C#N)c(C)c4C)c3O)nc2)CC1 [Example 309, 4-(1-(5-(4-ethylpiperazine-1-carbonyl)pyridin-2-yl)-5-hydroxy-1H-pyrazol-4-yl)-2,3-dimethylbenzonitrile]
- PHD Inhibition (pIC50) [1]: 7.97
- EC50 [2]: 2630 nM

SMILES: Cc1c(C#N)ccc(-c2cnn(-c3ccc(C(=O)N4CCN(C5CC5)CC4)cn3)c2O)c1C [Example 310, 4-(1-(5-(4-cyclopropylpiperazine-1-carbonyl)pyridin-2-yl)-5-hydroxy-1H-pyrazol-4-yl)-2,3-dimethylbenzonitrile]
- PHD Inhibition (pIC50) [1]: 8.13
- EC50 [2]: 3160 nM

SMILES: Cc1cc(C#N)ccc1-c1cnn(-c2ccc(C(=O)N3CCN(CC(F)F)CC3)cn2)c1O [Example 311, 4-(1-(5-(4-(2,2-difluoroethyl)piperazine-1-carbonyl)pyridin-2-yl)-5-hydroxy-1H-pyrazol-4-yl)-3-methylbenzonitrile]
- PHD Inhibition (pIC50) [1]: 8.51
- EC50 [2]: 1480 nM

SMILES: Cc1cc(C#N)ccc1-c1cnn(-c2ccc(C(=O)N3CCN(CC(F)(F)F)CC3)cn2)c1O [Example 312, 4-(5-hydroxy-1-(5-(4-(2,2,2-trifluoroethyl)piperazine-1-carbonyl)pyridin-2-yl)-1H-pyrazol-4-yl)-3-methylbenzonitrile]
- PHD Inhibition (pIC50) [1]: 8.50
- EC50 [2]: 1820 nM

SMILES: Cc1cc(C#N)ccc1-c1cnn(-c2ccc(C(=O)N(C)CCCN(C)C)cn2)c1O [Example 313, 6-(4-(4-cyano-2-methylphenyl)-5-hydroxy-1H-pyrazol-1-yl)-N-(3-(dimethylamino)propyl)-N-methylnicotinamide]
- PHD Inhibition (pIC50) [1]: 7.59
- EC50 [2]: 1120 nM

SMILES: Cc1cc(C#N)ccc1-c1cnn(-c2ccc(C(=O)N3CCCC(N4CCCCC4)C3)cn2)c1O (stereo not drawn) [Example 314, 4-(1-(5-([1,3′-bipiperidine]-1′-carbonyl)pyridin-2-yl)-5-hydroxy-1H-pyrazol-4-yl)-3-methylbenzonitrile]
- PHD Inhibition (pIC50) [1]: 7.90
- EC50 [2]: 550 nM

SMILES: Cc1cc(C#N)ccc1-c1cnn(-c2ccc(C(=O)N3CCC[C@@H](N(C)C)C3)cn2)c1O [Example 315, (R)-4-(1-(5-(3-(dimethylamino)piperidine-1-carbonyl)pyridin-2-yl)-5-hydroxy-1H-pyrazol-4-yl)-3-methylbenzonitrile]
- PHD Inhibition (pIC50) [1]: 8.09
- EC50 [2]: 562 nM

SMILES: COC1CCN(C(=O)c2ccc(-n3ncc(-c4ccc(C#N)c(F)c4C)c3O)nc2)CC1 [Example 316, 2-fluoro-4-(5-hydroxy-1-(5-(4-methoxypiperidine-1-carbonyl)pyridin-2-yl)-1H-pyrazol-4-yl)-3-methylbenzonitrile]
- PHD Inhibition (pIC50) [1]: 8.31
- EC50 [2]: 1290 nM

SMILES: Cc1c(-c2cnn(-c3ccc(C(=O)N4CC[C@@H](N(C)C)C4)cn3)c2O)ccc(C#N)c1F [Example 317, (R)-4-(1-(5-(3-(dimethylamino)pyrrolidine-1-carbonyl)pyridin-2-yl)-5-hydroxy-1H-pyrazol-4-yl)-2-fluoro-3-methylbenzonitrile]
- PHD Inhibition (pIC50) [1]: 8.31
- EC50 [2]: 676 nM

SMILES: Cc1c(-c2cnn(-c3ccc(C(=O)N4CC[C@H](N(C)C)C4)cn3)c2O)ccc(C#N)c1F [Example 318, (S)-4-(1-(5-(3-(dimethylamino)pyrrolidine-1-carbonyl)pyridin-2-yl)-5-hydroxy-1H-pyrazol-4-yl)-2-fluoro-3-methylbenzonitrile]
- PHD Inhibition (pIC50) [1]: 8.35
- EC50 [2]: 708 nM

SMILES: Cc1c(-c2cnn(-c3ccc(C(=O)N4CCC[C@@H](N(C)C)C4)cn3)c2O)ccc(C#N)c1F [Example 319, (R)-4-(1-(5-(3-(dimethylamino)piperidine-1-carbonyl)pyridin-2-yl)-5-hydroxy-1H-pyrazol-4-yl)-2-fluoro-3-methylbenzonitrile]
- PHD Inhibition (pIC50) [1]: 8.17
- EC50 [2]: 537 nM

SMILES: Cc1c(-c2cnn(-c3ccc(C(=O)N4CCC[C@H](N(C)C)C4)cn3)c2O)ccc(C#N)c1F [Example 320, (S)-4-(1-(5-(3-(dimethylamino)piperidine-1-carbonyl)pyridin-2-yl)-5-hydroxy-1H-pyrazol-4-yl)-2-fluoro-3-methylbenzonitrile]
- PHD Inhibition (pIC50) [1]: 8.17
- EC50 [2]: 741 nM

SMILES: Cc1c(-c2cnn(-c3ccc(C(=O)N4CC(N(C)C)C4)cn3)c2O)ccc(C#N)c1F [Example 321, 4-(1-(5-(3-(dimethylamino)azetidine-1-carbonyl)pyridin-2-yl)-5-hydroxy-1H-pyrazol-4-yl)-2-fluoro-3-methylbenzonitrile]
- PHD Inhibition (pIC50) [1]: 8.40
- EC50 [2]: 589 nM

SMILES: Cc1c(-c2cnn(-c3ccc(C(=O)N4CCN(C)CC4)cn3)c2O)ccc(C#N)c1F [Example 322, 2-fluoro-4-(5-hydroxy-1-(5-(4-methylpiperazine-1-carbonyl)pyridin-2-yl)-1H-pyrazol-4-yl)-3-methylbenzonitrile]
- PHD Inhibition (pIC50) [1]: 8.26
- EC50 [2]: 933 nM

SMILES: Cc1c(-c2cnn(-c3ccc(C(=O)N4CCCN(C5CC5)CC4)cn3)c2O)ccc(C#N)c1F [Example 323, 4-(1-(5-(4-cyclopropyl-1,4-diazepane-1-carbonyl)pyridin-2-yl)-5-hydroxy-1H-pyrazol-4-yl)-2-fluoro-3-methylbenzonitrile]
- PHD Inhibition (pIC50) [1]: 8.33
- EC50 [2]: 1820 nM

SMILES: Cc1c(-c2cnn(-c3ccc(C(=O)N4CCN(C)C5(CC5)C4)cn3)c2O)ccc(C#N)c1F [Example 324, 2-fluoro-4-(5-hydroxy-1-(5-(4-methyl-4,7-diazaspiro[2.5]octane-7-carbonyl)pyridin-2-yl)-1H-pyrazol-4-yl)-3-methylbenzonitrile]
- PHD Inhibition (pIC50) [1]: 8.54
- EC50 [2]: 832 nM

SMILES: Cc1c(-c2cnn(-c3ccc(C(=O)N4CCCC4)cn3)c2O)ccc(C#N)c1F [Example 325, 2-fluoro-4-(5-hydroxy-1-(5-(pyrrolidine-1-carbonyl)pyridin-2-yl)-1H-pyrazol-4-yl)-3-methylbenzonitrile]
- PHD Inhibition (pIC50) [1]: 8.44
- EC50 [2]: 977 nM

SMILES: COCCCN(C)C(=O)c1ccc(-n2ncc(-c3ccc(C#N)c(F)c3C)c2O)nc1 [Example 326, 6-(4-(4-cyano-3-fluoro-2-methylphenyl)-5-hydroxy-1H-pyrazol-1-yl)-N-(3-methoxypropyl)-N-methylnicotinamide]
- PHD Inhibition (pIC50) [1]: 8.33
- EC50 [2]: 490 nM

SMILES: Cc1c(-c2cnn(-c3ccc(C(=O)N4CCOCC4)cn3)c2O)ccc(C#N)c1F [Example 327, 2-fluoro-4-(5-hydroxy-1-(5-(morpholine-4-carbonyl)pyridin-2-yl)-1H-pyrazol-4-yl)-3-methylbenzonitrile]
- PHD Inhibition (pIC50) [1]: 8.47
- EC50 [2]: 589 nM

SMILES: CCN1CCN(C(=O)c2ccc(-n3ncc(-c4ccc(C#N)c(F)c4C)c3O)nc2)C[C@@H]1C [Example 328, (S)-4-(1-(5-(4-ethyl-3-methylpiperazine-1-carbonyl)pyridin-2-yl)-5-hydroxy-1H-pyrazol-4-yl)-2-fluoro-3-methylbenzonitrile]
- PHD Inhibition (pIC50) [1]: 8.39
- EC50 [2]: 309 nM

SMILES: Cc1c(-c2cnn(-c3ccc(C(=O)N4CCN(C)[C@@H](C)C4)cn3)c2O)ccc(C#N)c1F [Example 329, (S)-4-(1-(5-(3,4-dimethylpiperazine-1-carbonyl)pyridin-2-yl)-5-hydroxy-1H-pyrazol-4-yl)-2-fluoro-3-methylbenzonitrile]
- PHD Inhibition (pIC50) [1]: 8.50
- EC50 [2]: 331 nM

SMILES: CCN1CCN(C(=O)c2ccc(-n3ncc(-c4ccc(C#N)c(F)c4C)c3O)nc2)[C@H](C)C1 [Example 330, (R)-4-(1-(5-(4-ethyl-2-methylpiperazine-1-carbonyl)pyridin-2-yl)-5-hydroxy-1H-pyrazol-4-yl)-2-fluoro-3-methylbenzonitrile]
- PHD Inhibition (pIC50) [1]: 8.34
- EC50 [2]: 407 nM

SMILES: Cc1c(-c2cnn(-c3ccc(C(=O)N4CCC[C@@H](N(C)C5CC5)C4)cn3)c2O)ccc(C#N)c1F [Example 331, (R)-4-(1-(5-(3-(cyclopropyl(methyl)amino)piperidine-1-carbonyl)pyridin-2-yl)-5-hydroxy-1H-pyrazol-4-yl)-2-fluoro-3-methylbenzonitrile]
- PHD Inhibition (pIC50) [1]: 8.33
- EC50 [2]: 813 nM

SMILES: Cc1c(-c2cnn(-c3ccc(C(=O)N4CCC[C@H](N(C)CC(F)(F)F)C4)cn3)c2O)ccc(C#N)c1F [Example 332, (S)-2-fluoro-4-(5-hydroxy-1-(5-(3-(methyl(2,2,2-trifluoroethyl)amino)piperidine-1-carbonyl)pyridin-2-yl)-1H-pyrazol-4-yl)-3-methylbenzonitrile]
- PHD Inhibition (pIC50) [1]: 8.47
- EC50 [2]: 759 nM

SMILES: Cc1c(-c2cnn(-c3ccc(C(=O)N4CCC[C@H](N(C)CC(F)F)C4)cn3)c2O)ccc(C#N)c1F [Example 333, (S)-4-(1-(5-(3-((2,2-difluoroethyl)(methyl)amino)piperidine-1-carbonyl)pyridin-2-yl)-5-hydroxy-1H-pyrazol-4-yl)-2-fluoro-3-methylbenzonitrile]
- PHD Inhibition (pIC50) [1]: 8.55
- EC50 [2]: 741 nM

SMILES: Cc1c(-c2cnn(-c3ccc(C(=O)N4CCN5CCC[C@@H]5C4)cn3)c2O)ccc(C#N)c1F [Example 334, (R)-2-fluoro-4-(5-hydroxy-1-(5-(octahydropyrrolo[1,2-a]pyrazine-2-carbonyl)pyridin-2-yl)-1H-pyrazol-4-yl)-3-methylbenzonitrile]
- PHD Inhibition (pIC50) [1]: 8.50
- EC50 [2]: 1380 nM

SMILES: Cc1c(-c2cnn(-c3ccc(C(=O)N4CC(N5CCCCC5)C4)cn3)c2O)ccc(C#N)c1F [Example 335, 2-fluoro-4-(5-hydroxy-1-(5-(3-(piperidin-1-yl)azetidine-1-carbonyl)pyridin-2-yl)-1H-pyrazol-4-yl)-3-methylbenzonitrile]
- PHD Inhibition (pIC50) [1]: 8.43
- EC50 [2]: 1320 nM

From US10407409B2, “6-(5-hydroxy-1H-pyrazol-1-yl)nicotinamide inhibitors of PHD” (Takeda Pharmaceutical Company Limited, priority 2013, dated 2019)
